≈ marks a conversion by molar mass, not a printed value. Values belong to the compound of their own block, whether it stands above or below them.
How the values were obtained:
Assay type in all cases: functional
Staphylococcus aureus [1] = test: In vitro minimum inhibitory concentration against Staphylococcus aureus; 2-4
Enterococcus sp. [2] = test: In vitro minimum inhibitory concentration against Enterococcus species; 2-4
Streptococcus sp. [3] = test: In vitro minimum inhibitory concentration against Streptococcus species; </=0.06-0.12
Staphylococcus aureus [4] = test: In vitro minimum inhibitory concentration against Staphylococcus aureus; 2-8
Streptococcus sp. [5] = test: In vitro minimum inhibitory concentration against Streptococcus species; 0.5-2
Enterococcus sp. [6] = test: In vitro minimum inhibitory concentration against Enterococcus species; 4-32
Staphylococcus aureus [7] = test: In vitro minimum inhibitory concentration against Staphylococcus aureus; 4-8
Enterococcus sp. [8] = test: In vitro minimum inhibitory concentration against Enterococcus species; 8-16
Streptococcus sp. [9] = test: In vitro minimum inhibitory concentration against Streptococcus species
Staphylococcus aureus [10] = test: In vitro minimum inhibitory concentration against Staphylococcus aureus; 1-2
Streptococcus sp. [11] = test: In vitro minimum inhibitory concentration against Streptococcus species; 0.12-0.5
Staphylococcus aureus [12] = test: In vitro minimum inhibitory concentration against Staphylococcus aureus
Staphylococcus aureus [13] = test: In vitro minimum inhibitory concentration against Staphylococcus aureus; 0.5-2
Staphylococcus aureus [14] = test: In vitro minimum inhibitory concentration against Staphylococcus aureus; 16-32
Enterococcus sp. [15] = test: In vitro minimum inhibitory concentration against Enterococcus species; 16-32
Streptococcus sp. [16] = test: In vitro minimum inhibitory concentration against Streptococcus species; 1-16
Enterococcus sp. [17] = test: In vitro minimum inhibitory concentration against Enterococcus species; 32->64
Staphylococcus aureus [18] = test: In vitro minimum inhibitory concentration against Staphylococcus aureus; 32-64
Streptococcus sp. [19] = test: In vitro minimum inhibitory concentration against Streptococcus species; 8-32

SMILES: C[C@@H](c1ccccc1)[C@@H]1NC(=O)CNC(=O)[C@H](CO)NC(=O)[C@@H]([C@@H](O)[C@@H]2CN=C(N)N2[C@H]2O[C@H](CO)[C@@H](O)[C@H](O)[C@@H]2O)NC(=O)[C@H]([C@@H](O)[C@@H]2CN=C(N)N2)NC(=O)[C@@H](Cc2ccc(O[C@H]3O[C@H](CO)[C@@H](O[C@H]4O[C@H](COCc5ccc(Oc6ccccc6)cc5)[C@@H](O)[C@H](O)[C@@H]4O)[C@H](O)[C@@H]3O)cc2)NC1=O
MIC (Staphylococcus aureus [1]): 2 µg/mL (≈ 1.35 µM) | MIC (Enterococcus sp. [2]): 2 µg/mL (≈ 1.35 µM) | MIC (Streptococcus sp. [3]): ≤ 0.06 µg/mL

SMILES: COc1ccc(COC[C@H]2O[C@H](O[C@H]3[C@H](O)[C@H](O)[C@@H](Oc4ccc(C[C@H]5NC(=O)[C@H]([C@@H](C)c6ccccc6)NC(=O)CNC(=O)[C@H](CO)NC(=O)[C@@H]([C@@H](O)[C@@H]6CN=C(N)N6[C@H]6O[C@H](CO)[C@@H](O)[C@H](O)[C@@H]6O)NC(=O)[C@H]([C@@H](O)[C@@H]6CN=C(N)N6)NC5=O)cc4)O[C@@H]3CO)[C@@H](O)[C@@H](O)[C@@H]2O)cc1F
MIC (Staphylococcus aureus [4]): 2 µg/mL (≈ 1.4 µM) | MIC (Streptococcus sp. [5]): 0.5 µg/mL (≈ 0.349 µM) | MIC (Enterococcus sp. [6]): 4 µg/mL (≈ 2.79 µM)

SMILES: CCCOc1ccc(COC[C@H]2O[C@H](O[C@H]3[C@H](O)[C@H](O)[C@@H](Oc4ccc(C[C@H]5NC(=O)[C@H]([C@@H](C)c6ccccc6)NC(=O)CNC(=O)[C@H](CO)NC(=O)[C@@H]([C@@H](O)[C@@H]6CN=C(N)N6[C@H]6O[C@H](CO)[C@@H](O)[C@H](O)[C@@H]6O)NC(=O)[C@H]([C@@H](O)[C@@H]6CN=C(N)N6)NC5=O)cc4)O[C@@H]3CO)[C@@H](O)[C@@H](O)[C@@H]2O)cc1
MIC (Streptococcus sp. [9]): ≤ 0.06 µg/mL | MIC (Staphylococcus aureus [10]): 1 µg/mL (≈ 0.693 µM) | MIC (Enterococcus sp. [2]): 2 µg/mL (≈ 1.39 µM)

SMILES: C[C@@H](c1ccccc1)[C@@H]1NC(=O)CNC(=O)[C@H](CO)NC(=O)[C@@H]([C@@H](O)[C@@H]2CN=C(N)N2[C@H]2O[C@H](CO)[C@@H](O)[C@H](O)[C@@H]2O)NC(=O)[C@H]([C@@H](O)[C@@H]2CN=C(N)N2)NC(=O)[C@@H](Cc2ccc(O[C@H]3O[C@H](CO)[C@@H](O[C@H]4O[C@H](COC/C=C/c5ccc(N(C)C)cc5)[C@@H](O)[C@H](O)[C@@H]4O)[C@H](O)[C@@H]3O)cc2)NC1=O
MIC (Enterococcus sp. [17]): 32 µg/mL (≈ 22 µM) | MIC (Staphylococcus aureus [18]): 32 µg/mL (≈ 22 µM) | MIC (Streptococcus sp. [19]): 8 µg/mL (≈ 5.5 µM)

SMILES: C[C@@H](c1ccccc1)[C@@H]1NC(=O)CNC(=O)[C@H](CO)NC(=O)[C@@H]([C@@H](O)[C@@H]2CN=C(N)N2[C@H]2O[C@H](CO)[C@@H](O)[C@H](O)[C@@H]2O)NC(=O)[C@H]([C@@H](O)[C@@H]2CN=C(N)N2)NC(=O)[C@@H](Cc2ccc(O[C@H]3O[C@H](CO)[C@@H](O[C@H]4O[C@H](CO)[C@@H](OCC=C(c5ccccc5)c5ccccc5)[C@H](O)[C@@H]4O)[C@H](O)[C@@H]3O)cc2)NC1=O
MIC (Staphylococcus aureus [1]): 2 µg/mL (≈ 1.34 µM) | MIC (Streptococcus sp. [9]): ≤ 0.06 µg/mL | MIC (Enterococcus sp. [2]): 2 µg/mL (≈ 1.34 µM)

Second part, the compound after the results:

MIC (Staphylococcus aureus [7]): 4 µg/mL (≈ 2.83 µM) | MIC (Enterococcus sp. [8]): 8 µg/mL (≈ 5.67 µM) | MIC (Streptococcus sp. [5]): 0.5 µg/mL (≈ 0.354 µM)
SMILES: C[C@@H](c1ccccc1)[C@@H]1NC(=O)CNC(=O)[C@H](CO)NC(=O)[C@@H]([C@@H](O)[C@@H]2CN=C(N)N2[C@H]2O[C@H](CO)[C@@H](O)[C@H](O)[C@@H]2O)NC(=O)[C@H]([C@@H](O)[C@@H]2CN=C(N)N2)NC(=O)[C@@H](Cc2ccc(O[C@H]3O[C@H](CO)[C@@H](O[C@H]4O[C@H](COC/C=C/c5ccccc5)[C@@H](O)[C@H](O)[C@@H]4O)[C@H](O)[C@@H]3O)cc2)NC1=O

MIC (Streptococcus sp. [11]): 0.12 µg/mL (≈ 0.0857 µM) | MIC (Enterococcus sp. [2]): 2 µg/mL (≈ 1.43 µM) | MIC (Staphylococcus aureus [12]): 2 µg/mL (≈ 1.43 µM)
SMILES: Cc1ccc(COC[C@H]2O[C@H](O[C@H]3[C@H](O)[C@H](O)[C@@H](Oc4ccc(C[C@H]5NC(=O)[C@H]([C@@H](C)c6ccccc6)NC(=O)CNC(=O)[C@H](CO)NC(=O)[C@@H]([C@@H](O)[C@@H]6CN=C(N)N6[C@H]6O[C@H](CO)[C@@H](O)[C@H](O)[C@@H]6O)NC(=O)[C@H]([C@@H](O)[C@@H]6CN=C(N)N6)NC5=O)cc4)O[C@@H]3CO)[C@@H](O)[C@@H](O)[C@@H]2O)cc1

MIC (Streptococcus sp. [9]): ≤ 0.06 µg/mL | MIC (Enterococcus sp. [2]): 2 µg/mL (≈ 1.34 µM) | MIC (Staphylococcus aureus [13]): 0.5 µg/mL (≈ 0.335 µM)
SMILES: C[C@@H](c1ccccc1)[C@@H]1NC(=O)CNC(=O)[C@H](CO)NC(=O)[C@@H]([C@@H](O)[C@@H]2CN=C(N)N2[C@H]2O[C@H](CO)[C@@H](O)[C@H](O)[C@@H]2O)NC(=O)[C@H]([C@@H](O)[C@@H]2CN=C(N)N2)NC(=O)[C@@H](Cc2ccc(O[C@H]3O[C@H](CO)[C@@H](O[C@H]4O[C@H](CO)[C@@H](OCc5ccc(OCc6ccccc6)cc5)[C@H](O)[C@@H]4O)[C@H](O)[C@@H]3O)cc2)NC1=O

MIC (Staphylococcus aureus [14]): 16 µg/mL (≈ 11 µM) | MIC (Enterococcus sp. [15]): 16 µg/mL (≈ 11 µM) | MIC (Streptococcus sp. [16]): 1 µg/mL (≈ 0.688 µM)
SMILES: C[C@@H](c1ccccc1)[C@@H]1NC(=O)CNC(=O)[C@H](CO)NC(=O)[C@@H]([C@@H](O)[C@@H]2CN=C(N)N2[C@H]2O[C@H](CO)[C@@H](O)[C@H](O)[C@@H]2O)NC(=O)[C@H]([C@@H](O)[C@@H]2CN=C(N)N2)NC(=O)[C@@H](Cc2ccc(O[C@H]3O[C@H](CO)[C@@H](O[C@H]4O[C@H](CO)[C@@H](OC/C=C/c5ccc(N(C)C)cc5)[C@H](O)[C@@H]4O)[C@H](O)[C@@H]3O)cc2)NC1=O

Source: ChEMBL document CHEMBL1136816, “Synthesis and evaluation of ether and halogenated derivatives of mannopeptimycin glycopeptide antibiotics” (2003)
